Laboratory results as given in US7196105B2, “Treatment of human multiple myeloma by curcumin” (Research Development Foundation, priority 2002, dated 2007).

What was measured:
Type in all cases: cell-based, human
U266 cells [1] = experiment: Cytotoxic effect of vincristine with or without curcumin (MTT); settings: U266, curcumin 10 μM alone, 24 h
Method: The antiproliferative effects of curcumin against different multiple myeloma cell lines were determined by the MTT dye uptake method as described earlier (Manna et al., 1998). Briefly, cells (5000/well) were incubated in triplicate in a 96-well plate in the presence or absence of indicated test samples in a final volume of 0.1 ml for 24 h at 37° C. Thereafter, 0.025 ml of MTT solution (5 mg/ml in PBS) was added to each well. After a 2 h incubation at 37 ° C., 0.1 ml of extraction buffer (20% SDS, 50% dimethylformamide) was added. Incubation was continued for overnight at 37 ° C., and then the OD at 590 nm was measured using a 96-well multiscanner autoreader (Dynatech MR 5000), with extraction buffer as blank. Percent cell viability=(OD of the experiment samples/OD of the control)×100.

Bcl-xL = experiment: Western blot for NF-κB-regulated gene product Bcl-xL in U266 cells; settings: curcumin 50 μM, time course
Method: Sixty micrograms of cytoplasmic extracts were resolved on 10% SDS-PAGE gel, electrotransferred on a nitrocellulose membrane, and probed for the following: IκBα (FIG. 4A); Bcl-2 (FIG. 4B); Bcl-xL (FIG. 4C) and cyclin D1 (FIG. 4D). The same blots were stripped and reprobed with anti-β-actin antibody to show equal protein loading (lower panel in each figure). FIG. 4E: […] U266, MM.1 or RPMI 8226 cells (1×10^7) were treated with curcumin ([…]) in 5 ml of medium for the indicated times. Supernatants were harvested and concentrated approximately 20×, and IL-6 was quantitated by an IL-6 ELISA kit. Values shown were normalized to 1 ml of un-concentrated supernatants. Thirty to fifty micrograms of cytoplasmic protein extracts prepared as described (Chaturvedi et al., 2000) were resolved on 10% SDS-PAGE gel. After electrophoresis, the proteins were electrotransferred to a nitrocellulose membrane, blocked with 5% nonfat milk, and probed with antibodies against either IkBa, phospho-IkBa, Bcl-2, Bcl-xL, or cyclin D1 (1:3000) for 1 h. Thereafter, the blot was washed, exposed to HRP-conjugated secondary antibodies for 1 h, and finally detected by chemiluminescence (ECL, Amersham Pharmacia Biotech., Arlington Heights, Ill.).

PARP = experiment: Western blot for PARP cleavage (apoptosis); settings: U266, curcumin 50 μM, time course
Method: The cells were washed and total proteins were extracted by lysing the cells. Sixty microgram of extracts were resolved on 10% SDS-PAGE gel, electrotransferred to a nitrocellulose membrane, and probed with anti-procaspase-9 (FIG. 6C), anti-procaspase-7 (FIG. 6D), anti-PARP (FIG. 6E, upper panel) and anti-cleaved PARP (FIG. 6E, lower penal). […] Lysates were then spun at 14000 rpm for 10 min to remove insoluble material, resolved on 7.5% gel and probed with PARP antibodies. PARP was cleaved from the 116-kDa intact protein into 85-kDa and 40-kDa peptide products. To detect cleavage products of procaspase 7 and procaspase 9, whole cell extracts were resolved on 10% gel and probed with appropriate antibodies.

U266 cells [2] = experiment: Flow cytometric cell cycle analysis (propidium iodide); settings: U266, 10 μM curcumin, 24 h
Method: U266 cells (2×10^6 cells/ml) were incubated in the absence or presence of curcumin (10 μM) for the indicated times. The cells were then washed, fixed, stained with propidium iodide, and analyzed for DNA content by flow cytometry. […] After incubation for overnight at −20° C., cells were washed with PBS prior to staining with propidium iodide (PI), and then suspended in staining buffer (PI, […]; Tween-20, 0.5%; RNase, 0.1% in PBS). The cells were analyzed using a FACS Vantage flow cytometer that uses CellQuest acquisition and analysis programs (Becton Dickinson, San Jose, Calif.).

NF-κB = experiment: Electrophoretic mobility shift assay (EMSA) for nuclear NF-κB in multiple myeloma cell lines; settings: for time of complete downregulation of NF-κB: 50 μM curcumin
Method: FIG. 1A: Dose response of NF-κB to curcumin treatment of U266 cells. […] FIG. 1B: Effect of exposure duration on curcumin-induced NF-κB suppression in U266 cells. […] FIG. 1C: Effect of exposure duration on curcumin-induced NF-κB suppression in MM.1 cells. Cells were treated as described in FIG. 1B. FIG. 1D: Effect of exposure duration on curcumin-induced NF-κB suppression in MM.1R cells. Cells were treated as described in FIG. 1B. FIG. 1E: Effect of exposure duration on curcumin-induced NF-κB suppression in RPMI 8226. Cells were treated as described in FIG. 1B. FIG. 1F: […] Nuclear extracts were prepared from U266 cells (2×10^6/ml), incubated for 30 min with different antibodies or unlabeled NF-κB oligonucleotide probe, and then assayed for NF-κB by EMSA. […] U266 cells (2×10^6 cells/ml) were treated with indicated concentrations of NEMO-control or NBD-peptide (100 μM) for the indicated times. Nuclear extracts were then checked for the presence of NF-κB DNA-binding activity by EMSA. […] Untreated or NBD-peptide-treated (100 μM; 12 h) U266 cells were cytospun, and p65 immunocytochemistry was performed as described. Red stain indicates the localization of p65 and blue stain indicates nucleus (magnification 200×). […] U266 cells (2×10^6 cells/ml) were treated with indicated concentrations of NEMO-control or NBD-peptide (100 μM) for the indicated time periods, and cell viability was monitored by the trypan blue dye exclusion method. Percent cell killing was determined as: (number of trypan blue stained cells/total cells)×100. Nuclear extracts were prepared according to Bharti et al. (2003). Briefly, 2×10^6 cells were washed with cold PBS and suspended in 0.4 ml of hypotonic lysis buffer containing protease inhibitors for 30 min. The cells were then lysed with 12.5 μl of 10% Nonidet P-40. […] The nuclear pellet was resuspended in 25-μl ice-cold nuclear extraction buffer. After 30 min of intermittent mixing, the extract was centrifuged, and supernatants containing nuclear extracts were collected. Protein content was measured by the Bradford method. […] NF-kB activation was analyzed by electrophoretic mobility gel shift assay (EMSA) as described previously (Chaturvedi et al., 1994). […] Radioactive bands from the dried gels were visualized and quantitated by Phosphorlmager (Molecular Dynamics, Sunnyvale, Calif.) using ImageQuant software.

In the case of `COc1cc(/C=C/C(=O)CC(=O)/C=C/c2ccc(O)c(OC)c2)ccc1O` [curcumin, diferuloylmethane], the cells killed (U266 cells [1]) is reported as “approximately 35%”, the Bcl-xL protein level (Bcl-xL) is reported as “only a partial decline” and the PARP cleavage (PARP) is reported as “cleavage of a 118-kDa PARP protein into an 89-kDa fragment”. For the same compound, the “percentage of cells in the S phase” value (U266 cells [2]; from 22% without treatment) was 9%, the “percentage of cells in the G1 phase” value (U266 cells [2]; from 52% without treatment) was 70% and the “time of complete downregulation of NF-κB” value (NF-κB; MM.1 cells) was 4 h. For the same compound, the “time of complete downregulation of NF-κB” value (NF-κB; MM.1R cells) was 4 h, the “time of complete downregulation of NF-κB” value (NF-κB; U266 cells) was 4 h and the “concentration sufficient to fully suppress constitutive NF-κB activation” value (NF-κB; U266 cells, 4 h, EMSA) was 50 µM.
